Results on 15 molecules are retold here after patent US20050282863A1, “Novel-N substituted dihydrobenzothiepino, dihydrobenzoxepino and tetrahydro benzocyclohepta indoles as selective estrogen receptor modulators” (Council of Scientific & Industrial Research, priority 2004, published 2005).

Assay [1] deals with immature ovariectomized rats. The experiment in a line: Estrogen agonistic activity: increase in uterine weight in immature ovariectomized rats. It is filed as in vivo, rat. Particulars: 3 days, percent of ovariectomized + vehicle group. As for the experimental part:
Twenty-one-day-old immature female rats are bilaterally ovariectomized under light ether anaesthesia and, after post-operative rest for 7 days, are randomized into different treatment groups. Each rat receives the compound of the invention once daily for 3 consecutive days on days 28-30 of age. A separate group of animals receiving only the vehicle for similar duration serves as control. A autopsy 24 h after the last treatment on day 31 of age, vaginal smear of each rat is taken and uterus is carefully exised, gently blotted, weighed and fixed for histology and histomorphometry using image analysis. Premature opening of vagina, cornification of vaginal epitelium, increase in uterine fresh weight, total uterine and endometrial area and uterine luminal epithelial cell height are taken as parameters for evaluation of estrogen agonistic activity in comparision to rats of vehicle control group.

Assay [2] relates to MCF-7 cells. The experiment in a line: Antiproliferative/cytotoxic activity in cultured MCF-7 cells (SRB assay). The assay is classed as cell-based. Particulars: Homo sapiens, MCF7, 48 h, MCF-7, 48 h. As for the experimental part: The procedure is based on the following methods: New calorimetric assay for anticancer drug screening, Skehan et al., J Natn Cancer Inst, 82,1107, 1990 and Feasibility of a high-flux anticancer drug screen using a diverse panel of cultured human tumor cell lines, J Natn Cancer Inst, 83,757, 1991.
A fully confluent flask of MCF-7 cells in trypsinized and 10^4 cells/well are plated in a 96 welled flat bottomed plate in 200 μl Minimum Essential Medium (MEM), pH 7.4 and allowed to attach for 24 h at 37° C. in a humidified CO2 incubator. Subsequently, the compound of invention dissolved in DMSO or ethanol is added at a specified concentration and further incubated for 48 h as before. The cells are then fixed in 50 μl cold 50% TCA and incubated for 1 h at 4° C. The supernatant is discarded and the plate is washed five times with deionized water and air-dried. 100 μl of 0.4% (w/v) Sulforhodamine B (SRB) in 1% acetic acid is added to each well and incubated at room temperature for 30 minutes. Unbound SRB is removed by five washes with chilled 1% acetic acid and the plate is air-dried. 200 μl of unbuffered 10 mM Tris base is added to solublize the bound stain for 5 minutes at room temperature and O.D. is read at 560 nm in a plate reader. The graph is plotted between O.D. and concentration and LC50 is calculated with respect to tamoxifen, which is used as a positive control.

The subject of assay [3] is immature ovariectomized rats. The experiment in a line: Estrogen antagonistic activity: inhibition in 17α-ethynylestradiol induced uterine weight gain in immature ovariectomized rats. The assay is classed as in vivo, rat. The settings on record: 3 days. The method, then: Twenty-one-day-old immature female rats are bilaterally ovariectomized under light ether anaesthesia and after post-operative rest for 7 days, are randomized into different treatment groups. Each rat receives the compounds of the invention and 0.02 mg/kg dose of 17-alfa-ethynylestradiol in 10% ethanol-distilled water once daily for 3 consecutive days on days 28-30 of age. A separate group of animals receiving only 17-alfa-ethynylestradiol (0.02 mg/kg) in 10% ethanol-distilled water for similar duration are used for comparison. At autopsy on day 31 of age, vaginal smear of each rat is taken and uterus is carefully excised, gently blotted, weighed and fixed for histology and histomorphometry using image analysis. Inhibition in 17-alfa-ethynylestradiol-induced premature opening of vagina, cornification of vaginal epithelium, increase in uterine fresh weight, total uterine and endometrial area and uterine luminal epithelial cell height are taken as parameters for evaluation of estrogen antagonistic activity.

The target of assay [4] is T1, estrogen receptors (Rattus norvegicus, UniProt P06211).
T1 construct: Aliquot of uterine cytosol (200 μl; 2 uteri per ml) prepared in TEA buffer; from tissue; host or cells: uterine cytosol of immature estradiol-primed 20-21 day old rats
T1 sequence (P06211 1-600): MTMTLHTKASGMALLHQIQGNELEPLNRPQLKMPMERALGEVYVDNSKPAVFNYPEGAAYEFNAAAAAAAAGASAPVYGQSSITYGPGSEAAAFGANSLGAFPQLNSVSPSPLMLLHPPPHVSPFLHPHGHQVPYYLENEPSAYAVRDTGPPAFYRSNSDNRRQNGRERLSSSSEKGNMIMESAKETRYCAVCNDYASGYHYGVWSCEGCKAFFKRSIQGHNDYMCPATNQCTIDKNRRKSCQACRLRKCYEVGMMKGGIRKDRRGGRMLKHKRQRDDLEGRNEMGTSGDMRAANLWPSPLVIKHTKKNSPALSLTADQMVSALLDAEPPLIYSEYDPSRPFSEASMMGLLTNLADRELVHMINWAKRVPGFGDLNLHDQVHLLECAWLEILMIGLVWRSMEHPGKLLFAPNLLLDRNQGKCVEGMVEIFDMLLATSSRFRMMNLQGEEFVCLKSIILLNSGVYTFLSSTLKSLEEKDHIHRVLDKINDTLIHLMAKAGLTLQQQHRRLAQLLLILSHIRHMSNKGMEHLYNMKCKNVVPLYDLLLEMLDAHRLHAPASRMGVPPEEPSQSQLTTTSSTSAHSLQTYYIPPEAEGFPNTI
As to the kind of experiment: Relative binding affinity (RBA) to estrogen receptors, 3H-estradiol competition assay. Also noted: key: % of 17-beta-estradiol binding affinity (estradiol = 100). Particulars: relative to 17-beta-estradiol (=100, percentage value); rat uterine cytosol, 3H-E2, 18 hrs at 4° C. The method, then:
The relative binding affinity (RBA) of the compounds for estrogen receptor is determined by competition assay, employing ^3H-estradiol (^3H-E2) as the radioligand. The test ligands and ^3H-E2 are incubated at 4° C. with cystol estrogen receptors obtained from uteri of immature estradoil-primed (1 μg/rat 24 h before autopsy) 20-21 days old rats. Aliquot of uterine cytosol (200 μl; 2 uteri per ml) prepared in TEA buffer (10 mM Tris, 1.5 mM EDTA, 0.02% sodium azide, pH 7.4) are incubated in duplicate with a fixed concentration of ^3H-E2 in the absence or presence of various concentrations of the competitor substance dissolved in 30 μl of the TEA buffer containing DMF as co-solvent (final concentration of DMF in the incubation mixture never exceeded 5%) for 18 hrs at 4° C. At the end of this period, dextran coated charcoal (5% Norit 0.5% dextran) suspension in 100 μl of TEA buffer is added to each tube, briefly vortexed and allowed to stand for 15 minutes at 4° C. The mixture is centrifuged at 800 g for 10 minutes and the supernatants counted for radioactivity in 10 ml of a dioxane-based scintillation fluid. RBA of the text compound is computed from a graph plotted between percent bound radioactivity verses log concentration of the test substance. […] This when multiplied with 100 gives the percentage value designated as RBA.

Assay [5] deals with adult female rats. As to the kind of experiment: Post-coital antifertility efficacy in adult female rats. It is filed as in vivo, rat. The settings on record: daily dose 10 mg/kg, oral, days 1-7 post-coitum. The text has this: Adult female rats are caged overnight with coeval males of proven fertility and their vaginal smears are checked on the following morning. The day of presence of spermatozoa in the vaginal smear is taken as day 1 of pregnancy. Mated rats are isolated and randomized into various treatment groups and treated orally with the compound of invention or the vehicle on days 1-7/1-5 post-coitum. Animals of all the groups are autopsied on day 10 post-coitum and number and status of corpora lutea and implantation sites in each rat are recorded. The compounds of the present invention are considered active if there is complete absence of implantations in the uterus of all rats, in comparison to presence of normal implantations in the uterus of rats of vehicle control group.

Like-named read-outs stand apart in the source and are kept apart here. Bounds are passed on as bounds.

Consider `C#C[C@]1(O)CC[C@H]2[C@@H]3CCc4cc(O)ccc4[C@H]3CC[C@@]21C` [17α-Ethynylestradiol, reference compound], for which, in assay [1] (daily dose 0.01 mg/kg), the “Percent increase in uterine weight” value turned out to be 419%.

On to `c1ccc2c(c1)SCCc1c-2n(CCCCN2CCCCC2)c2ccccc12` [Example number 9, 12-[4-(Piperidine-1-yl)butyl]-6,7-dihydro-12H-benzothiepino [5,4-b]indole], for which the CC50 in assay [2] (read-out: LC50, Test-2) worked out at 37.4 µM.

Regarding `CCCCN(C)CCCCCn1c2c(c3ccccc31)CCSc1ccccc1-2.O=C1O[C@H]([C@@H](O)CO)C(O)=C1O` [Example number 15, 12-[5-(N-butylmethylamino)pentyl]-6,7-dihydro-12H-benzothiepino [5,4-b]indole ascorbic acid salt], the “Percent inhibition in 17α-ethynylestradiol induced uterine weight gain” value in assay [3] (daily dose 1 mg/kg with 0.02 mg/kg 17-alfa-ethynylestradiol) is 10.00%; in assay [3] (daily dose 3 mg/kg with 0.02 mg/kg 17-alfa-ethynylestradiol) it was 23.00%; in assay [3] (daily dose 10 mg/kg with 0.02 mg/kg 17-alfa-ethynylestradiol), 15.00%. The “Percent increase in uterine weight” value in assay [1] (daily dose 1 mg/kg) is listed as 11.00%; in assay [1] (daily dose 3 mg/kg) it was 15.00%; in assay [1] (daily dose 10 mg/kg), 11.50%.

For the molecule `c1ccc2c(c1)SCCc1c-2n(CCCCCCN2CCCC2)c2ccccc12` [Example number 19, 12-[6-(Pyrrolidine-1-yl)hexyl]-6,7-dihydro-12H-benzothiepino [5,4-b]indole], the RBA in assay [4] worked out at 0.053.

For the molecule `CCCCN(C)CCCCCCn1c2c(c3ccccc31)CCSc1ccccc1-2` [Example number 20, 12-[6-(N-butylmethylamino)hexyl]-6,7-dihydro-12H-benzothiepino [5,4-b]indole], the RBA in assay [4] is listed as 0.10.

In the case of `COc1ccc2c(c1)SCCc1c-2n(CCCCCN2CCCCC2)c2ccccc12` [Example number 22, 3-Methoxy-12-[5-(piperidine-1-yl)pentyl]-6,7-dihydro-12H-benzothiepino [5,4-b]indole], the RBA in assay [4] is listed as less than 0.001. Besides, the CC50 in assay [2] (read-out: LC50, Test-4) was determined as 19.5 µM.

Take `COc1ccc2c(c1)SCCc1c-2n(CCCCCN2CCCC2)c2ccccc12` [Example number 23, 3-Methoxy-12-[5-(pyrrolidine-1-yl)pentyl]-6,7-dihydro-12H-benzothiepino [5,4-b]indole]: the RBA in assay [4] is listed as less than 0.001. The CC50 in assay [2] (read-out: LC50, Test-4) came out at 60 µM.

On to `Oc1ccc2c(c1)SCCc1c-2n(CCCCCN2CCCC2)c2ccccc12` [Example number 25, 3-Hydroxy-12-[5-(pyrrolidine-1-yl)pentyl]-6,7-dihydro-12H-benzothiepino [5,4-b]indole], for which the RBA in assay [4] came to 0.83. For the same molecule, the CC50 in assay [2] (read-out: LC50, Test-2) is 15 µM.

For the molecule `Oc1ccc2c(c1)c1c(n2CCCCCN2CCCCC2)-c2ccccc2SCC1` [Example number 29, 9-Hydroxy-12-[5-(piperidine-1-yl)pentyl]-6,7-dihydro-12H-benzothiepino [5,4-b]indole], in assay [5], the “% Efficacy” value was “Inactive”. Also, the RBA in assay [4] is less than 0.001.

For the molecule `COc1ccc2c(c1)SCCc1c-2n(CCCCCN2CCCCC2)c2ccc(OC)cc12` [Example number 32, 3,9-Dimethoxy-12-[5-(piperidine-1-yl)pentyl]-6,7-dihydro-12H-benzothiepino [5,4-b]indole], the RBA in assay [4] is given as less than 0.001. Moreover, in assay [2] (read-out: LC50, Test-4), the CC50 was found to be 28 µM.

Turning to `COc1ccc2c(c1)SCCc1c-2n(CCCCCN2CCCC2)c2ccc(OC)cc12` [Example number 33, 3,9-Dimethoxy-12-[5-(pyrrolidine-1-yl)pentyl]-6,7-dihydro-12H-benzothiepino [5,4-b]indole], the RBA in assay [4] is reported as less than 0.001. For the same molecule, in assay [2] (read-out: LC50, Test-4), the CC50 worked out at 18.2 µM.

Turning to `CCCCN(C)CCCCCn1c2c(c3cc(OC)ccc31)CCSc1cc(OC)ccc1-2` [Example number 34, 3,9-Dimethoxy-12-[5-(N-butylmethylamino)pentyl]-6,7-dihydro-12H-benzothiepino [5,4-b]indole], the RBA in assay [4] was determined as 0.032.

Regarding `c1ccc2c(c1)SCCc1c-2n(Cc2ccc(OCCCCCN3CCCCC3)cc2)c2ccccc12` [Example number 43, 12-[4-(5-Piperidin-1-yl-pentyloxy)benzyl]-6,7-dihydro-12H-benzothiepino [5,4-b]indole], the “% Efficacy” value in assay [5] is recorded as “Inactive”.

With `c1ccc2c(c1)SCCc1c-2n(Cc2ccc(OCCCCCN3CCCCC3)cc2)c2ccccc12` [Example number 60, 12-[4-(5-Piperidin-1-yl-pentyloxy)benzyl]-6,7-dihydro-12H-benzothiepino [5,4-b]indole], the “% Efficacy” value in assay [5] is “Inactive”. Also, the CC50 in assay [2] (read-out: LC50, Test-4) was 18.4 µM.

In the case of `CC/C(=C(\c1ccccc1)c1ccc(OCCN(C)C)cc1)c1ccccc1` [Tamoxifen, reference compound], the CC50 in assay [2] (read-out: LC50, Test-1) was 18.5 µM; in assay [2] (read-out: LC50, Test-2), 5.5 µM; in assay [2] (read-out: LC50, Test-3), 12.4 µM; in assay [2] (read-out: LC50, Test-4), 9.8 to 10 µM.
